Consider 24 molecules from ChEMBL document CHEMBL1806408, “Design-driven LO: the discovery of new ultra long acting dibasic β2-adrenoceptor agonists” (Bioorg Med Chem Lett, 2011).

Where only a bound is given, the exact number is not on record here.

For series [1], the target named is T1, Beta-1 adrenergic receptor (Homo sapiens, UniProt P08588).
The nature of a further series: physchem. The following applies: octanol/phosphate buffer, pH 7.4.
Series [2] deals with Cavia porcellus. Kind of series: Bronchodilatory activity in intratracheally dosed guinea pig assessed as inhibition of histamine-induced bronchoconstriction. Particulars: inhaled or nasal.
Series [3] relates to Cavia porcellus. Kind of series: Bronchodilatory activity in intratracheally dosed guinea pig assessed as inhibition of histamine-induced bronchoconstriction after 24 hrs. The class given is functional.
The nature of series [4]: Oral bioavailability in rat. The class given is ADME, organism-based. Particulars: in vivo.
Another series in a line: in vivo. Particulars: rat, plasma, iv.
The nature of series [5]: Selectivity ratio of IC50 for adrenergic beta1 receptor over EC50 for human adrenergic beta2 receptor.
Series [6] in a line: Selectivity ratio of EC50 for human adrenergic beta2 receptor to EC50 for adrenergic beta1 receptor.
The next series has as its target D(2) dopamine receptor (Homo sapiens, UniProt P14416).
For series [7], the target named is Beta-2 adrenergic receptor (Homo sapiens, UniProt P07550).
Sequence of Beta-2 adrenergic receptor (P07550 whole entry): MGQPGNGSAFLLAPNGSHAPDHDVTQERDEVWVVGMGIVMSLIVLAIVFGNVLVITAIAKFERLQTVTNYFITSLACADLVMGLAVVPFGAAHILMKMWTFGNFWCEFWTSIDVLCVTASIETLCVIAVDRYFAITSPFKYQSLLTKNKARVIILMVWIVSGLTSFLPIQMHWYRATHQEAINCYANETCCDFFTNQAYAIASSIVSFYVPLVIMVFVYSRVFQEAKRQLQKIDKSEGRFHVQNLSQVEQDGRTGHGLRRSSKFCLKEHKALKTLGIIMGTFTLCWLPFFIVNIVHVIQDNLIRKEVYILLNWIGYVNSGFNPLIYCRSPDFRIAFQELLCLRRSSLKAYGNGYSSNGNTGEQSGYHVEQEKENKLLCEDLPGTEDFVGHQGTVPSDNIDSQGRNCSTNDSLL
The nature of series [8]: Selectivity ratio of IC50 for dopamine 2 receptor over EC50 for human adrenergic beta2 receptor.
In series [9] the target is T1, Beta-1 adrenergic receptor. The source holds these as a separate data set.

Sequence of D(2) dopamine receptor (P14416 whole entry): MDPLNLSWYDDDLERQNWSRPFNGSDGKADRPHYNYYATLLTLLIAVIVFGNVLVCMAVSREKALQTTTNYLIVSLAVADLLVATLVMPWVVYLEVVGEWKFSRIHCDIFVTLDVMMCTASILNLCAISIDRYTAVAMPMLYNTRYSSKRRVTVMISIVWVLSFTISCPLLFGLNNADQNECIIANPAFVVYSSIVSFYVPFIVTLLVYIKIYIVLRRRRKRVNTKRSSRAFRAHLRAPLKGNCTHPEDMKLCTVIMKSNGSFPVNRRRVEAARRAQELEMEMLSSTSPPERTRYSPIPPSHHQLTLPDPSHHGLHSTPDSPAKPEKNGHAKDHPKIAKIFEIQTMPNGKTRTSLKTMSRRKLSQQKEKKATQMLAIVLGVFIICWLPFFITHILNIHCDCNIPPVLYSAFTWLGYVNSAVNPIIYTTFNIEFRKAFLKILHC
T1 sequence (P08588 whole entry): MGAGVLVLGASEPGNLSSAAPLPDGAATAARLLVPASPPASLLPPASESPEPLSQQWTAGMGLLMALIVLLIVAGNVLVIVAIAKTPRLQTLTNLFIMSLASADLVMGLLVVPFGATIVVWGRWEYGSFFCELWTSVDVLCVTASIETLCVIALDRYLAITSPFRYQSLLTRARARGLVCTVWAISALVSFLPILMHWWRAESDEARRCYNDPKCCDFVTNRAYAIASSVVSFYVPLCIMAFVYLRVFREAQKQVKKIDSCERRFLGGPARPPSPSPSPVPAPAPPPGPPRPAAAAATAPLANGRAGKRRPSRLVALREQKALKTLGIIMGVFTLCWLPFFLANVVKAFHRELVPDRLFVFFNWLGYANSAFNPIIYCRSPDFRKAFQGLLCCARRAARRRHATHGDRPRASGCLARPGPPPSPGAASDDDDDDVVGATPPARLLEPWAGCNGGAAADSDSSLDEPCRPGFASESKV

On to `O=c1[nH]c2c(O)ccc([C@@H](O)CNCCCSCCCOCCc3ccccc3)c2s1`, for which a half-maximal response in series [1] (EC50) required 3.98 nM. Also, the logD in “physchem” is above 2.5.
The molecule `O=c1[nH]c2c(O)ccc([C@@H](O)CNCCOCCCNCCc3cccc(Cl)c3)c2s1` had a logD in the series “physchem” of 0.8.
As to `O=c1[nH]c2c(O)ccc([C@@H](O)CNCCSCCCNCCc3ccccc3Cl)c2s1`, in the series on Cavia porcellus [2], the ED80 is 7 µg/kg. Moreover, the “inhibition (INH)” value in the series with Cavia porcellus [3] worked out at 49%. In addition, in the series “physchem”, the logD is 1. This molecule also yielded a bioavailability in series [4] below 1%. Also, the half-life in “in vivo” is 15.9 h.
With `O=c1[nH]c2c(O)ccc([C@@H](O)CNCCSCCCNCCc3cccc(Cl)c3Cl)c2s1`, the half-life in the series “in vivo” is 10.1 h.
`O=c1[nH]c2c(O)ccc([C@@H](O)CNCCCSCCOCCc3cccc4ccccc34)c2s1` registered a logD in “physchem” of 3.1. In “in vivo”, this molecule gave a half-life of 3.5 h.
Turning to `O=c1[nH]c2c(O)ccc([C@@H](O)CNCCCSCCNCCc3cccc(Cl)c3Cl)c2s1`, the results for the Ratio IC50/EC50 in [5] and in [8] were 45 and 562, respectively. In addition, the Ratio EC50 in [6] was found to be 35. Moreover, the IC50 was 1000 nM against D(2) dopamine receptor and 79.4 nM in [9]. Also, the EC50 in series [1] is 63.1 nM; in series [7], 1.58 nM. In addition, in “physchem”, the logD came out at 1.7.
Molecule `O=c1[nH]c2c(O)ccc([C@@H](O)CNCCSCCCNCCc3ccccc3)c2s1` returned a logD in “physchem” of 0.1. This molecule had a half-life in “in vivo” of 10.8 h.
Take `O=c1[nH]c2c(O)ccc(CCNCCS(=O)(=O)CCCOCCc3ccccc3)c2s1` [SIBENADET]: the results for the Ratio IC50/EC50 in series [5] and in series [8] were above 14000 and 141, respectively. For the same molecule, the ED80 in the series on Cavia porcellus [2] stood at 7 µg/kg. Further, the IC50 is 100 nM against D(2) dopamine receptor and above 10000 nM in [9]. For the same molecule, in series [7], the EC50 was 0.631 nM. Further, in “physchem”, the logD turned out to be 2.6.
For the molecule `O=c1[nH]c2c(O)ccc([C@@H](O)CNCCCSCCNCCc3cccc(Cl)c3)c2s1`, the IC50 against D(2) dopamine receptor is 1580 nM. In “physchem”, the logD is 1.1.
As to `O=c1[nH]c2c(O)ccc([C@@H](O)CNCCCOCCNCCc3cccc(Cl)c3Cl)c2s1`, the Ratio IC50/EC50 in series [5] stood at 63; in [8] it was 2510. Moreover, the Ratio EC50 in [6] worked out at 178. For the same molecule, the IC50 is 2000 nM against D(2) dopamine receptor and 50.1 nM in [9]. In [1], this molecule gave an EC50 of 158 nM. In “physchem”, the logD was found to be 0.6.
Regarding `O=c1[nH]c2c(O)ccc([C@@H](O)CNCCCOCCOCCc3cccc4ccccc34)c2s1`, the logD in the series “physchem” stood at 2.3.
Same read-out and setting: the result for `CCOc1ccc(CCNCCCSCCNC[C@H](O)c2ccc(O)c3[nH]c(=O)sc23)cc1` reads 0.4.
As to `OCc1cc(C(O)CNCCCCCCOCCCCc2ccccc2)ccc1O` (centres undefined) [SALMETEROL], the ED80 in the series with Cavia porcellus [2] was 1 µg/kg. This molecule also registered a logD in the series “physchem” of 1.9. The molecule also had a half-life in “in vivo” of 2.9 h.
Regarding `CCc1ccc(CCNCCCSCCNC[C@H](O)c2ccc(O)c3[nH]c(=O)sc23)cc1`, in “physchem”, the logD came to 0.9.
Same read-out and setting: the result for `O=c1[nH]c2c(O)ccc([C@@H](O)CNCCCSCCOCCc3ccccc3)c2s1` reads 2.3.
For the molecule `CN(CCOCCCNC[C@H](O)c1ccc(O)c2[nH]c(=O)sc12)CCc1ccccc1`, the Ratio IC50/EC50 in series [5] was 150; in series [8], 794. The Ratio EC50 in [6] stood at 79. The half-inhibitory concentration (IC50) on D(2) dopamine receptor is 2510 nM; in [9], 398 nM. Further, the EC50 in series [1] is 200 nM; in series [7], 2.51 nM.
Molecule `O=c1[nH]c2c(O)ccc([C@@H](O)CNCCSCCCOCCc3ccccc3)c2s1` showed an IC50 at D(2) dopamine receptor above 1000 nM. In addition, the logD in the series “physchem” is 2.5.
Turning to `O=c1[nH]c2c(O)ccc([C@@H](O)CNCC[S+]([O-])CCCNCCc3cccc(Cl)c3)c2s1` (some centres undefined), the Ratio IC50/EC50 in [5] is 26; in series [8] it was above 560. Also, in [6], the Ratio EC50 was determined as 8. Further, the half-inhibitory concentration (IC50) against D(2) dopamine receptor was above 3160 nM; in series [9], 158 nM. Also, the EC50 in [1] was 39.8 nM; in [7], 5.01 nM. For the same molecule, in “physchem”, the logD is 0.2.
Consider `O=c1[nH]c2c(O)ccc([C@@H](O)CNCCSCCCNCCc3cccc(C(F)(F)F)c3)c2s1`, for which the log distribution coefficient (logD) in the series “physchem” is 1.2.
As to `O=c1[nH]c2c(O)ccc([C@@H](O)CNCCCOCCNCCc3cccc(Cl)c3)c2s1`, the values for the Ratio IC50/EC50 in series [5] and in series [8] were 45 and above 14100, respectively. Further, the Ratio EC50 in series [6] was 100. Besides, the half-inhibitory concentration (IC50) at D(2) dopamine receptor is above 2510 nM; in series [9], 63.1 nM. The results for the EC50 in series [1] and in [7] were 39.8 nM and 0.2 nM, respectively. For the same molecule, the logD in “physchem” stood at 0.
For the molecule `NC(=O)C(c1ccccc1)(c1ccccc1)[C@@H]1CCN(CCc2ccc3c(c2)CCO3)C1` [DARIFENACIN], the values for the Ratio IC50/EC50 in series [5] and in [8] were 21 and 1860, respectively. The Ratio EC50 in [6] came to 2. Also, the ED80 with Cavia porcellus [2] came out at 14 µg/kg. Also, in “in vivo”, the half-life was 7.6 h.
Consider `O=c1[nH]c2c(O)ccc([C@@H](O)CNCCCSCCNCCc3ccccc3Cl)c2s1`, for which the IC50 on D(2) dopamine receptor was 1000 nM. In series [1], this molecule had an EC50 of 39.8 nM.
`O=c1[nH]c2c(O)ccc([C@@H](O)CNCCS(=O)(=O)CCCNCCc3cccc(Cl)c3)c2s1` gave an IC50 at D(2) dopamine receptor of 794 nM.
On to `O=c1[nH]c2c(O)ccc([C@@H](O)CNCCCOCCOCCc3ccccc3)c2s1`, for which the logD in “physchem” stood at 1.1.

The EC50 is the midpoint of the concentration-response curve. A high value points to weaker potency. In general, logD refers to the decadic logarithm of the distribution of all forms, ionised or not, between an organic phase and buffer at a given pH. The bioavailability is the share of a dose that reaches the circulation, judged against a reference dose that is usually intravenous. What is called half-life is the time in which the quantity being followed falls by half. A higher half-life goes with slow loss. What is called IC50 is the midpoint of a concentration-inhibition curve. Read a high IC50 as weaker potency.
